How the values were obtained:
[1] = In vitro human intestinal S9 hydrolysis assay (formation of compound 1-1); conditions: human intestinal S9, 1 uM, 37° C., up to 60 minutes
Procedure: Compounds (1 uM) were incubated with pooled intestinal S9 subcellular preparations (0.5 mg/mL total protein) from SD rats and humans without the addition of protease inhibitor phenylmethylsulfonylflouride. Incubations were carried out in a potassium phosphate buffer (50 mM). All concentrations were relative to the final incubation volume of 125 uL. Incubations were conducted at 37° C. for 0, 5, 10, 20, 40 and 60 minutes in a water bath and terminated by rapid mixing with 150 uL of ice-cold acetonitrile containing 1% formic acid. Internal standard was added and proteins were precipitated and removed by centrifugation prior to LC/MS analysis.

[2] = target: VMAT2 (human platelet homogenate) (Homo sapiens (Human), UniProt Q05940); assay: Human VMAT2 Ki, slightly modified competition binding procedure (Table 11); conditions: 10 nM 3H-dihydrotetrabenazine;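 note: competition binding with 90 min incubation at 25 °C, after which filter-retained radioligand was measured by scintillation counting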
Chain of VMAT2 (human platelet homogenate) (Q05940 whole entry): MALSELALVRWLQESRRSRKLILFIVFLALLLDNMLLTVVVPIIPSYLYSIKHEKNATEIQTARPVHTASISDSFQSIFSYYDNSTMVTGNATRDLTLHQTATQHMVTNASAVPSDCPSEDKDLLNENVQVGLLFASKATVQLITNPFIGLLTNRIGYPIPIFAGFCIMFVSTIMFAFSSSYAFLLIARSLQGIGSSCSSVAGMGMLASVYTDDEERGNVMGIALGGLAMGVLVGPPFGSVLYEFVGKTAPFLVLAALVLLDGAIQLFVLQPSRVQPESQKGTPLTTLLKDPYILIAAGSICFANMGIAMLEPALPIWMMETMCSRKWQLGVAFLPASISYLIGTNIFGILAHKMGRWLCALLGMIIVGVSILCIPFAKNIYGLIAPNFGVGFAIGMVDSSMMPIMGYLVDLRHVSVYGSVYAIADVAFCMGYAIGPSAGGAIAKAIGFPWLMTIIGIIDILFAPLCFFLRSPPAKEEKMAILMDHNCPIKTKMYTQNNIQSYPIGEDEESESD
Procedure: Following incubation at 25° C. for 90 minutes, bound radioligand was collected by rapid filtration onto GF/B glass fiber filters using a Unifilter-96 Harvester (PerkinElmer). Filter plates were pre-treated with 0.1% polyethylenimine and allowed to dry overnight, and following harvesting the filter plates were washed with 800 d VMAT2 binding buffer. Bound radioligand was quantified by scintillation counting using a Topcount NXT (PerkinElmer).

| SMILES | S9 Assay (ability to form compound 1-1) [1] | Ki [2] [nM] |
| --- | --- | --- |
| COc1cc2c(cc1OC)[C@H]1C[C@@H](COC(=O)N3CCN[C@@H](C(=O)O)C3)[C@H](CC(C)C)CN1CC2 [Compound 6-8, (2R)-4-({[(2R,3S,11bR)-9,10-dimethoxy-3-(2-methylpropyl)-1H,2H,3H,4H,6H,7H,11bH-pyrido[2,1-a]isoquinolin-2-yl]methoxy}carbonyl)piperazine-2-carboxylic acid] | + | 10 to 500 |
| COc1cc2c(cc1OC)[C@H]1C[C@@H](COC(=O)C3CC3C(=O)O)[C@H](CC(C)C)CN1CC2 (stereo partly drawn) [Compound 3-4, 2-({[(2R,3S,11bR)-9,10-dimethoxy-3-(2-methylpropyl)-1H,2H,3H,4H,6H,7H,11bH-pyrido[2,1-a]isoquinolin-2-yl]methoxy}carbonyl)cyclopropane-1-carboxylic acid] | ++ | 10 to 500 |
| COc1cc2c(cc1OC)[C@H]1C[C@@H](COC(=O)C3CCCCC3C(=O)O)[C@H](CC(C)C)CN1CC2 (stereo partly drawn) [Compound 3-6, 2-({[(2R,3S,11bR)-9,10-dimethoxy-3-(2-methylpropyl)-1H,2H,3H,4H,6H,7H,11bH-pyrido[2,1-a]isoquinolin-2-yl]methoxy}carbonyl)cyclohexane-1-carboxylic acid] | ++ | 10 to 500 |
| COc1cc2c(cc1OC)[C@H]1C[C@@H](COC(=O)N(C)C(CC(C)C)C(=O)O)[C@H](CC(C)C)CN1CC2 (stereo partly drawn) [Compound 5-46, 2-[({[(2R,3S,11bR)-9,10-dimethoxy-3-(2-methylpropyl)-1H,2H,3H,4H,6H,7H,11bH-pyrido[2,1-a]isoquinolin-2-yl]methoxy}carbonyl)(methyl)amino]-4-methylpentanoic acid] | ++ | > 500 |
| COc1cc2c(cc1OC)[C@H]1C[C@@H](COC(=O)N3CCNC[C@@H]3C)[C@H](CC(C)C)CN1CC2 [Compound 6-5, [(2R,3S,11bR)-9,10-dimethoxy-3-(2-methylpropyl)-1H,2H,3H,4H,6H,7H,11bH-pyrido[2,1-a]isoquinolin-2-yl]methyl (2S)-2-methylpiperazine-1-carboxylate] | ++ | < 10 |
| COc1cc2c(cc1OC)[C@H]1C[C@@H](COC(=O)N3CCN[C@H](C)C3)[C@H](CC(C)C)CN1CC2 [Compound 6-13, [(2R,3S,11bR)-9,10-dimethoxy-3-(2-methylpropyl)-1H,2H,3H,4H,6H,7H,11bH-pyrido[2,1-a]isoquinolin-2-yl]methyl (3R)-3-methylpiperazine-1-carboxylate] | + | < 10 |
| COc1cc2c(cc1OC)[C@H]1C[C@@H](COC(=O)N3CCNCC3)[C@H](CC(C)C)CN1CC2 [Compound 6-1, [(2R,3S,11bR)-9,10-dimethoxy-3-(2-methylpropyl)-1H,2H,3H,4H,6H,7H,11bH-pyrido[2,1-a]isoquinolin-2-yl]methyl piperazine-1-carboxylate] | + | < 10 |
| COc1cc2c(cc1OC)[C@H]1C[C@@H](COC(=O)NC[C@@H](CC(=O)O)CC(C)C)[C@H](CC(C)C)CN1CC2 [Compound 5-19, (3R)-3-{[({[(2R,3S,11bR)-9,10-dimethoxy-3-(2-methylpropyl)-1H,2H,3H,4H,6H,7H,11bH-pyrido[2,1-a]isoquinolin-2-yl]methoxy}carbonyl)amino]methyl}-5-methylhexanoic acid] | + | 10 to 500 |
| COc1cc2c(cc1OC)[C@H]1C[C@@H](COC(=O)NCC(O)C(=O)O)[C@H](CC(C)C)CN1CC2 (stereo partly drawn) [Compound 5-11, 3-[({[(2R,3S,11bR)-9,10-dimethoxy-3-(2-methylpropyl)-1H,2H,3H,4H,6H,7H,11bH-pyrido[2,1-a]isoquinolin-2-yl]methoxy}carbonyl)amino]-2-hydroxypropanoic acid] | ++ | 10 to 500 |
| COc1cc2c(cc1OC)[C@H]1C[C@@H](COC(=O)N3CC(C(=O)O)C3)[C@H](CC(C)C)CN1CC2 [Compound 5-27, 1-({[(2R,3S,11bR)-9,10-dimethoxy-3-(2-methylpropyl)-1H,2H,3H,4H,6H,7H,11bH-pyrido[2,1-a]isoquinolin-2-yl]methoxy}carbonyl)azetidine-3-carboxylic acid] | + | > 500 |
| COc1cc2c(cc1OC)[C@H]1C[C@@H](COC(=O)NCC(=O)O)[C@H](CC(C)C)CN1CC2 [Compound 5-30] | + | > 500 |
| COc1cc2c(cc1OC)[C@H]1C[C@@H](COC(=O)CC3(CC(=O)O)CCCC3)[C@H](CC(C)C)CN1CC2 [Compound 3-9] | ++ | 10 to 500 |
| COc1cc2c(cc1OC)[C@H]1C[C@@H](COC(=O)N3CCC(C(=O)O)(N(C)C)CC3)[C@H](CC(C)C)CN1CC2 [Compound 5-43, 1-({[(2R,3S,11bR)-9,10-dimethoxy-3-(2-methylpropyl)-1H,2H,3H,4H,6H,7H,11bH-pyrido[2,1-a]isoquinolin-2-yl]methoxy}carbonyl)-4-(dimethylamino)piperidine-4-carboxylic acid] | + | > 500 |
| COc1cc2c(cc1OC)[C@H]1C[C@@H](COC(=O)N(C)CCCC(=O)O)[C@H](CC(C)C)CN1CC2 [Compound 5-25, 4-[({[(2R,3S,11bR)-9,10-dimethoxy-3-(2-methylpropyl)-1H,2H,3H,4H,6H,7H,11bH-pyrido[2,1-a]isoquinolin-2-yl]methoxy}carbonyl)(methyl)amino]butanoic acid] | + | > 500 |
| COc1cc2c(cc1OC)[C@H]1CC(COC(=O)CC(C)(C)C(=O)O)[C@H](CC(C)C)CN1CC2 (stereo partly drawn) [Compound 3-7, 4-{[(3S,11bR)-9,10-dimethoxy-3-(2-methylpropyl)-1H,2H,3H,4H,6H,7H,11bH-pyrido[2,1-a]isoquinolin-2-yl]methoxy}-2,2-dimethyl-4-oxobutanoic acid] | + | 10 to 500 |
| COc1cc2c(cc1OC)[C@H]1C[C@@H](COC(=O)N[C@@H](C)C(=O)O)[C@H](CC(C)C)CN1CC2 [Compound 5-47, (2S)-2-[({[(2R,3S,11bR)-9,10-dimethoxy-3-(2-methylpropyl)-1H,2H,3H,4H,6H,7H,11bH-pyrido[2,1-a]isoquinolin-2-yl]methoxy}carbonyl)amino]propanoic acid] | + | 10 to 500 |
| COc1cc2c(cc1OC)[C@H]1C[C@@H](COC(=O)N3CCC(C(=O)O)CC3)[C@H](CC(C)C)CN1CC2 [Compound 5-52, 1-({[(2R,3S,11bR)-9,10-dimethoxy-3-(2-methylpropyl)-1H,2H,3H,4H,6H,7H,11bH-pyrido[2,1-a]isoquinolin-2-yl]methoxy}carbonyl)piperidine-4-carboxylic acid] | + | > 500 |
| COc1cc2c(cc1OC)[C@H]1C[C@@H](COC(=O)CC3CCCNC3)[C@H](CC(C)C)CN1CC2 (stereo partly drawn) [Compound 4-10, [(2R,3S,11bR)-9,10-dimethoxy-3-(2-methylpropyl)-1H,2H,3H,4H,6H,7H,11bH-pyrido[2,1-a]isoquinolin-2-yl]methyl 2-(piperidin-3-yl)acetate] | ++ | < 10 |
| COc1cc2c(cc1OC)[C@H]1C[C@@H](COC(=O)CCC(C)(C)C(=O)O)[C@H](CC(C)C)CN1CC2 [Compound 3-12] | +++ | 10 to 500 |

Reference: patent US11053242B2, “[9,10-dimethoxy-3-(2-methylpropyl)-1H,2H,3H,4H,6H,7H,11BH-pyrido-[2,1-a]isoquinolin-2-yl]methanol and compounds, compositions and methods relating thereto” (Neurocrine Biosciences, Inc., priority 2015, dated 2021)
